The values below come from patent publication US6503935B1, “Imidazoles and related compounds as α1A agonists” (Abbott Laboratories, priority 1998, dated 2003).

Structures can show the parent of a compound that is named as a salt. Where two headings read alike, the source gives them in different places.

Test [1] concerns the target T1, α1A (rat submaxillary gland) (Rattus norvegicus, UniProt P43140).
T1 construct: α1A (rat submaxillary gland); from tissue; host or cells: rat submaxillary gland
T1 sequence (P43140 1-466): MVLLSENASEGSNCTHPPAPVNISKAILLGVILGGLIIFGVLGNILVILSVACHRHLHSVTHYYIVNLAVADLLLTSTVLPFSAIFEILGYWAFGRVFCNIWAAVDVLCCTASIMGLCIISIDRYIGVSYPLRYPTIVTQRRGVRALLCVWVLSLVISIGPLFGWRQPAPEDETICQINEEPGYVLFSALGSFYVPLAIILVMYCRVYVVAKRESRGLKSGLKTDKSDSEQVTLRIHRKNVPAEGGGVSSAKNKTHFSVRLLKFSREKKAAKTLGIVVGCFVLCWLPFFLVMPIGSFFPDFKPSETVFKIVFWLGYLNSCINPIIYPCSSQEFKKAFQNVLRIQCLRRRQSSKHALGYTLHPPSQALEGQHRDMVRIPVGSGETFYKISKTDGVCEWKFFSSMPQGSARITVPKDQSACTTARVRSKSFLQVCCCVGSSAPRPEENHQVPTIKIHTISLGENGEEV
Nature of the test: Radioligand binding with [3H]-prazosin, α1A. To be noted: rat submaxillary gland, [3H]-prazosin. How it is done: (§1) For purposes of discussing α1 adrenoceptor subtypes, the IUPHAR convention of using lower case letters to define molecular clones and upper case letters to indicate pharmacologically defined adrenoceptors has been followed. Compounds of formula I were evaluated in radioligand binding assays specific for α1A (rat submaxillary gland), α1b (hamster receptor expressed in mouse fibroblasts) and α1d (rat receptor expressed in mouse fibroblasts) using [^3H]-prazosin as the radioligand as described in Knepper, et al. J. Pharm.

Test [2] addresses T2, α1A (rabbit urethra) (Oryctolagus cuniculus, UniProt O02824).
T2 construct: tested for α1A functional activity using rabbit urethra; from tissue; host or cells: rabbit urethra
T2 sequence (O02824 1-466): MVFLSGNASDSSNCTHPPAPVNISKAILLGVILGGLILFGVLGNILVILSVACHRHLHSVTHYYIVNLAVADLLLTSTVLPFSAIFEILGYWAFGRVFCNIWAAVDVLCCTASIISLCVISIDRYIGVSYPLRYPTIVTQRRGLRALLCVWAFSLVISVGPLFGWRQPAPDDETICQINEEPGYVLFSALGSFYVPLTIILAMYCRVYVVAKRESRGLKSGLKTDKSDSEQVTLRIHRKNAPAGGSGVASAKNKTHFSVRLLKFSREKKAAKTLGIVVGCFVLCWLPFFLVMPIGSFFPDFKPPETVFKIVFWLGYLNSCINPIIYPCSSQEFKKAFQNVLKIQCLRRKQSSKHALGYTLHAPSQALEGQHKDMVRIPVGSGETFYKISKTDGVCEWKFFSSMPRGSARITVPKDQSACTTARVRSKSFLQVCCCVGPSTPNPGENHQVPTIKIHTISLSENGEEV
Nature of the test: Agonist contraction of smooth muscle tissue, rabbit urethra. The test is classed as cell-based. The note with it: rabbit urethra; for EC50: read-out: Agonist Tissue Response (pD2) α1A (rab ureth) (converted). The procedure: Most of the compounds were tested for α1A functional activity using rabbit urethra as follows. Female New Zealand white rabbits (2.0-3.5 Kg) were sedated with CO2 and decapitated. […] Subsequent experimental conditions were as described above for the other tissues. Agonist concentration response curves were cumulative except for the vas deferens assay in which the transient response made such measurements impractical.

Test [3] addresses T3, α1B (rat spleen) (Rattus norvegicus, UniProt P15823).
T3 construct: α1B (rat spleen) and α1D (rat aorta) receptors; from tissue; host or cells: rat spleen
T3 sequence (P15823 1-515): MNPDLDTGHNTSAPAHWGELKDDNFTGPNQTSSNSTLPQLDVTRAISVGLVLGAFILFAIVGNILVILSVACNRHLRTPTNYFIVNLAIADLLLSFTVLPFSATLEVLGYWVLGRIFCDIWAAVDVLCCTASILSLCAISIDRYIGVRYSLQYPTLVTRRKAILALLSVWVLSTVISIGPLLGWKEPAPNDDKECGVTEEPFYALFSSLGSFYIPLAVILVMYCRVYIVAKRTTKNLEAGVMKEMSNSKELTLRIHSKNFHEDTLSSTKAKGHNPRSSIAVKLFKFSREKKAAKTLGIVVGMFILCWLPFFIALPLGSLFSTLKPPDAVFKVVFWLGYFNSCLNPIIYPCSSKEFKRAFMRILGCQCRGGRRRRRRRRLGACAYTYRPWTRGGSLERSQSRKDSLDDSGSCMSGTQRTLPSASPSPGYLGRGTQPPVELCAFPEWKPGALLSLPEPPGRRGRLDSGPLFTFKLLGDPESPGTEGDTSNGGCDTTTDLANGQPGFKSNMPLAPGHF
In words: Agonist contraction of smooth muscle tissue, rat spleen. The test is classed as cell-based. To be noted: rat spleen; for EC50: read-out: Agonist Tissue Response (pD2) α1B (rat spleen) (converted).

In test [4] the target is T4, α1D (rat aorta) (Rattus norvegicus, UniProt P23944).
T4 construct: α1B (rat spleen) and α1D (rat aorta) receptors; from tissue; host or cells: rat aorta strips, endothelium removed
T4 sequence (P23944 1-561): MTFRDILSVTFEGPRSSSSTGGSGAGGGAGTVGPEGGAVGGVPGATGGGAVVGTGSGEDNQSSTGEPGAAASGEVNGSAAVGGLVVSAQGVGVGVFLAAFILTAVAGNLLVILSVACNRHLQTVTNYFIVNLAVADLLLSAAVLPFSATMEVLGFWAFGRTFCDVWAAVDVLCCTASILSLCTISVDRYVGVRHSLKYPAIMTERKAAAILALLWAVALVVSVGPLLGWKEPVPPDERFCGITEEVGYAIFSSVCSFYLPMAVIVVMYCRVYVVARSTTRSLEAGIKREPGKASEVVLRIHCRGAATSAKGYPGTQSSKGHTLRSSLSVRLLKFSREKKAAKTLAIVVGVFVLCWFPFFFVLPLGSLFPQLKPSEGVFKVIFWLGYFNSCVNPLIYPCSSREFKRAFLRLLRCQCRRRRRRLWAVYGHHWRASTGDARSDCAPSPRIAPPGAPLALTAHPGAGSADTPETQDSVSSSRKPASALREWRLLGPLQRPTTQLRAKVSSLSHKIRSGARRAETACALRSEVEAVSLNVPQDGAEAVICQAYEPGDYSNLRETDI
Nature of the test: Agonist contraction of smooth muscle tissue, rat aorta. The test is classed as cell-based. To be noted: rat aorta, endothelium removed; for EC50: read-out: Agonist Tissue Response (pD2) α1D (rat aorta) (converted).

Test [5] addresses T5, α1d (rat receptor expressed in mouse fibroblasts) (Rattus norvegicus, UniProt P23944).
T5 construct: expressed in transfected cells; host or cells: mouse fibroblasts
T5 sequence (P23944 1-561): T4 sequence (P23944 1-561)
Nature of the test: Radioligand binding with [3H]-prazosin, α1d. The note with it: rat receptor expressed in mouse fibroblasts, [3H]-prazosin. The procedure:
as §1

Where [6] appears, read: read-out: Radioligand Binding Ki α1d (Rat).

By Ki is commonly meant a dissociation constant, usually derived from enzyme kinetics or from competition with a known ligand. Consider `CCS(=O)(=O)Nc1cccc2c1CCCCC2c1c[nH]cn1` (centres unmarked) [Example 40, N-[5-(1H-imidazol-4-yl)-6,7,8,9-tetrahydro-5H-benzo[a]cyclohepten-1-yl]ethanesulfonamide, maleate], for which, in test [1], affinity was put at a Ki of 1.34 µM.

For the compound `CS(=O)(=O)Nc1ccc(O)c2c1CCCC2c1c[nH]cn1` (centres unmarked) [Example 24, N-[5,6,7,8-tetrahydro-4-hydroxy-5-(1H-imidazol-4-yl)-1-naphthalenyl]methanesulfonamide, maleate], the values for the EC50 in test [2], in test [3] and in test [4] were 24.5 µM, above 1000 µM and above 1000 µM, respectively. In test [1], this compound came in with a Ki of 0.712 µM.

For `O=S(=O)(CC(F)(F)F)Nc1cccc2c1CCCC2c1c[nH]cn1` (single isomer, unassigned; (-)) [Example 35, (−)-N-[5,6,7,8-tetrahydro-5-(1H-imidazol-4-yl)-1-naphthalenyl]-2,2,2-trifluoroethanesulfonamide], the EC50 is 81.3 µM in test [2], above 1000 µM in test [3] and above 1000 µM in test [4]. Besides, the Ki in test [1] came out at 2.18 µM.

In the case of `O=S(=O)(Nc1cccc2c1CCCC2c1cnc[nH]1)c1ccc(Cl)s1` (centres unmarked) [Example 72, 5-Chloro-N-[5-(1H-imidazol-5-yl)-5,6,7,8-tetrahydro-1-naphthalenyl]-2-thiophenesulfonamide], the Ki is 2.28 µM in test [5] (setting [6]) and 1.51 µM in test [1].

As for `O=S(=O)(CC(F)(F)F)Nc1cccc(Cc2c[nH]cn2)c1` [Example 78, 2,2,2-trifluoro-N-[3-(1H-imidazol-4-ylmethyl)phenyl]ethanesulfonamide, maleate], the EC50 in test [2] was 8.91 µM.

Turning to `Cc1ccc(S(=O)(=O)Nc2cccc3c2CCCC3c2cnc[nH]2)cc1` (centres unmarked) [Example 68, N-[5-(1H-imidazol-5-yl)-5,6,7,8-tetrahydro-1-naphthalenyl]-4-methylbenzenesulfonamide], in test [1], the Ki turned out to be 5.28 µM.

As for `CCS(=O)(=O)Nc1ccc(OC)c2c1CCCC2c1c[nH]cn1.O=C(O)C=CC(=O)O` (centres unmarked) [Example 25], in test [2], the “Agonist Tissue Response (pD2) α1A (rab ureth)” value was determined as 4.48. The “Agonist Tissue Response (pD2) α1B (rat spleen)” value in test [3] turned out to be 3.12. In test [4], the “Agonist Tissue Response (pD2) α1D (rat aorta)” value is below 3.00.

Regarding `CCS(=O)(=O)Nc1ccc(OC)c2c1CCCC2c1c[nH]cn1.O=C(O)C=CC(=O)O` (centres unmarked) [Example 25, maleate], in test [1], the Ki turned out to be 2.46 µM.

Turning to `O=C(O)C=CC(=O)O.O=S(=O)(Nc1cccc2c1CCCC2c1c[nH]cn1)C1CC1` (centres unmarked) [Example 27, N-[5,6,7,8-tetrahydro-(1H-imidazol-4-yl)-1-naphthalenyl]cyclopropanesulfonamide, maleate], the values for the inhibition constant (Ki) in test [5] (setting [6]) and in test [1] were 2.67 µM and 0.531 µM, respectively. Moreover, the “Agonist Tissue Response (pD2) α1A (rab ureth)” value in test [2] was found to be 5.25.

Take `CCCCS(=O)(=O)Nc1cccc2c1CCCC2c1cnc[nH]1` (centres unmarked) [Example 64, N-[5-(1H-imidazol-5-yl)-5,6,7,8-tetrahydro-1-naphthalenyl]-1-butanesulfonamide]: in test [1], the Ki came to 4.15 µM.

As to `CS(=O)(=O)Nc1cccc2c1CCCCC2c1c[nH]cn1` (centres unmarked) [Example 38, N-[5-(1H-imidazol-4-yl)-6,7,8,9-tetrahydro-5H-benzo[a]cyclohepten-1-yl]methanesulfonamide, maleate], the Ki in test [5] (setting [6]) came to 2.54 µM; in test [1] it was 1.36 µM. For the same compound, the EC50 in test [2] was 19.1 µM.

With `CCS(=O)(=O)Nc1ccc(Cl)c2c1CCCC2c1c[nH]cn1` (centres unmarked) [Example 42, N-[4-chloro-5-(1H-imidazol-4-yl)-5,6,7,8-tetrahydro-1-naphthalenyl]ethanesulfonamide, maleate], the figures for the Ki in test [5] (Radioligand Binding Ki α1d (Rat)) and in test [1] were 2.28 µM and 0.359 µM, respectively. In addition, in test [2], the EC50 was above 1000 µM.

Consider “Methyl 2-({[5-(1H-imidazol-5-yl)-5,6,7,8-tetrahydro-1-naphthalenyl]amino}sulfonyl)-3-thiophenecarboxylate [Example 75]”, for which the Ki in test [1] amounted to 4.6 µM.

On to `CCCS(=O)(=O)Nc1cccc2c1CCCC2c1c[nH]cn1` (centres unmarked) [Example 63, N-[5-(1H-imidazol-5-yl)-5,6,7,8-tetrahydro-1-naphthalenyl]-1-propanesulfonamide], for which the Ki in test [1] was determined as 1.72 µM.

The compound `Cc1noc(C)c1S(=O)(=O)Nc1cccc2c1CCCC2c1cnc[nH]1` (centres unmarked) [Example 61, N-[5-(1H-imidazol-5-yl)-5,6,7,8-tetrahydro-1-naphthalenyl]-3,5-dimethyl-4-isoxazolesulfonamide] came in with a Ki in test [1] of 1.56 µM.

With `CCC(O)(c1cccc(NS(=O)(=O)CC)c1)c1c[nH]cn1` (centres unmarked) [Example 55, N-[3-(1-hydroxy-1-(1H-imidazol-4-yl)propyl)phenyl]ethanesulfonamide], the Ki amounted to 2.34 µM in test [5] (setting [6]) and 3.65 µM in test [1].

In test [1], `Cc1ccccc1S(=O)(=O)Nc1cccc2c1CCCC2c1cnc[nH]1` (centres unmarked) [Example 69, N-[5-(1H-imidazol-5-yl)-5,6,7,8-tetrahydro-1-naphthalenyl]-2-methylbenzenesulfonamide] showed a Ki of 4.47 µM.

`Cc1nn(C)c(Cl)c1S(=O)(=O)Nc1cccc2c1CCCC2c1cnc[nH]1` (centres unmarked) [Example 74, 5-Chloro-N-[5-(1H-imidazol-5-yl)-5,6,7,8-tetrahydro-1-naphthalenyl]-1,3-dimethyl-1H-pyrazole-4-sulfonamide] had a Ki in test [1] of 5.06 µM.

In test [1], `CC(=O)Nc1nc(C)c(S(=O)(=O)Nc2cccc3c2CCCC3c2cnc[nH]2)s1` (centres unmarked) [Example 76, N-[5-({[5-(1H-imidazol-5-yl)-5,6,7,8-tetrahydro-1-naphthalenyl]amino}sulfonyl)-4-methyl-1,3-thiazol-2-yl]acetamide] returned a Ki of 3.21 µM.
